System: not given
Assay: not given
Details: non-specific irreversible FASN inhibitors; cited from earlier work

Question: With `C=C1C(=O)OC(CCCCCCCC)C1C(=O)O` (stereo not drawn) [Example C-75] as the molecule, how does the “brain levels of orexigenic neuropeptides” value read?
Answer: The value was “decrease brain levels of orexigenic neuropeptides”.

Question: And the food intake?
Answer: Its food intake is “decrease food intake”.

Question: With `C/C=C/C/C=C/CCC(=O)[C@H]1O[C@H]1C(N)=O` [Cerulenin] as the molecule, how does the “brain levels of orexigenic neuropeptides” value read?
Answer: Its value is “decrease brain levels of orexigenic neuropeptides”.

Question: And the food intake?
Answer: The food intake was “decrease food intake”.

System: viral replication (Flaviviridae family)
Assay: not given
Details: inhibition of FASN by small molecule inhibitors; cited from earlier work

Question: Which “inhibition of viral replication” value does the source give for `CCCCCCCCCCC[C@@H](C[C@@H]1OC(=O)[C@H]1CCCCCC)OC(=O)[C@H](CC(C)C)NC=O` [Orlistat] here?
Answer: Its value is “strong inhibition of viral replication”.

Question: Which “inhibition of viral replication” value does the source give for `C/C=C/C/C=C/CCC(=O)[C@H]1O[C@H]1C(N)=O` [Cerulenin] here?
Answer: Its value is “strong inhibition of viral replication”.

Molecular target: T1, recombinant human baculovirus-expressed GST-tagged FASN (Homo sapiens, UniProt P49327)
T1 construct: GST
T1 sequence (P49327 whole entry): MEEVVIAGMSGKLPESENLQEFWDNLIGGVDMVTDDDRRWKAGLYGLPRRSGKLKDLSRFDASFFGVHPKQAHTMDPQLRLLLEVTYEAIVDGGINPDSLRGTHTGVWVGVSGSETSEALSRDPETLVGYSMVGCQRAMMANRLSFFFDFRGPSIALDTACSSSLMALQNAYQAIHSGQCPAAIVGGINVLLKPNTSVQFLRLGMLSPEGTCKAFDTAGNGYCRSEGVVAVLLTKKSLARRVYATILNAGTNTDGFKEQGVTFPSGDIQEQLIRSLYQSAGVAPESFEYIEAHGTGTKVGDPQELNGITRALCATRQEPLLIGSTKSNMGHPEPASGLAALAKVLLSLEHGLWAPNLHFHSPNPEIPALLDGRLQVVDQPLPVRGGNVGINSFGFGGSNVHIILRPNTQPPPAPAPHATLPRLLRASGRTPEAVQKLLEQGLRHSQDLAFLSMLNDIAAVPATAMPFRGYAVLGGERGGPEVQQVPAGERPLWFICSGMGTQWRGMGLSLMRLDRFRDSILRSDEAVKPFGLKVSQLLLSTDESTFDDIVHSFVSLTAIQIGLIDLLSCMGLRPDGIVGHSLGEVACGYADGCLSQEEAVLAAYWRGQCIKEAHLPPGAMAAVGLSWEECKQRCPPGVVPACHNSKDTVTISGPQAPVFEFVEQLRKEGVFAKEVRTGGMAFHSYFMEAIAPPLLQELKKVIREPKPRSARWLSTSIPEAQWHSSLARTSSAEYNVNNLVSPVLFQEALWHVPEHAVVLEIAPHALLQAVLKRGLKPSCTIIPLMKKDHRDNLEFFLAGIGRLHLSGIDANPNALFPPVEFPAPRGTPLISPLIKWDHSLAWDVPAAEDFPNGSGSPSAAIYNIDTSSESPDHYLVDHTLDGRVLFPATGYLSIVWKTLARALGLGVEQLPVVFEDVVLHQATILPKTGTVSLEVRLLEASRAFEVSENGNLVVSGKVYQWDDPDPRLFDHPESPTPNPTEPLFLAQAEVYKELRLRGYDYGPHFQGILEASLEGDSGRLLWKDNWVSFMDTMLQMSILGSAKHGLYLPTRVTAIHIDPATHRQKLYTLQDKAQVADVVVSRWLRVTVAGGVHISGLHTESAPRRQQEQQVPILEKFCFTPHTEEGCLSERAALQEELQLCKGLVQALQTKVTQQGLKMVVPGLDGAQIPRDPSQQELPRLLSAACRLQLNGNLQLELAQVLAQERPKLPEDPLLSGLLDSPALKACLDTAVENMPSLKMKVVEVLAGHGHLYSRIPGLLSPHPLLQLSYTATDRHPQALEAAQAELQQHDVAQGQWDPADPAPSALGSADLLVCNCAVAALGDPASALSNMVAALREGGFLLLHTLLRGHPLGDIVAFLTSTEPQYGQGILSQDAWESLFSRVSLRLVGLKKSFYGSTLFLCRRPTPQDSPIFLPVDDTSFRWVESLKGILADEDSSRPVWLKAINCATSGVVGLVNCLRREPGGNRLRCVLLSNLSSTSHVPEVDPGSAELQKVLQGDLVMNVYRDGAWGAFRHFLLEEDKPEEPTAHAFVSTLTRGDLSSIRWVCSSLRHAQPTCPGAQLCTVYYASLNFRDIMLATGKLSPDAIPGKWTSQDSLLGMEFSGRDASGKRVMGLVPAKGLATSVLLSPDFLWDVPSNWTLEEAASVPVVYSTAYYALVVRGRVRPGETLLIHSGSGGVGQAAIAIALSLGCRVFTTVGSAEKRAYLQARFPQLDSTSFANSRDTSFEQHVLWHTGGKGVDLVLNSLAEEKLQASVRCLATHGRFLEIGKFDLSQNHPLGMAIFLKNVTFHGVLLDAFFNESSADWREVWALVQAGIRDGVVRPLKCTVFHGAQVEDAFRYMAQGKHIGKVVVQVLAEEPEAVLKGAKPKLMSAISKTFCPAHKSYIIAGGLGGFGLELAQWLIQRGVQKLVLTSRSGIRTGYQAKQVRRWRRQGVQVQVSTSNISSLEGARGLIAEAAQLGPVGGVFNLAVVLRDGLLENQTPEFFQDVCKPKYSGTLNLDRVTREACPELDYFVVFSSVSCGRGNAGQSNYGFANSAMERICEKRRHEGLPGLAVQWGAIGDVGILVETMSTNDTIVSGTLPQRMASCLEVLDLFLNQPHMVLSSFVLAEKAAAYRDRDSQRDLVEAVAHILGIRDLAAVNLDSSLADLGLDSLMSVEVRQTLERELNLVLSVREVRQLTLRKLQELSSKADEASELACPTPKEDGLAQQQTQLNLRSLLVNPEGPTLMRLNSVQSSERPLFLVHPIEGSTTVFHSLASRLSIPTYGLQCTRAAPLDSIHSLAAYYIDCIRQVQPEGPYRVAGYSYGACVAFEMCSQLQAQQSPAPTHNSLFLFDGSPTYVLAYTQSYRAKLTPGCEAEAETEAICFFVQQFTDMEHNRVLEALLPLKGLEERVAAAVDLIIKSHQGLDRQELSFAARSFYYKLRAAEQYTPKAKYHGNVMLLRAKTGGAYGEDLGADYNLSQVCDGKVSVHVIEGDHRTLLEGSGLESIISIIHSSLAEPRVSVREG
Assay: biochemical
Details: not given

Question: For `CONC(=O)N1CCC2(CC1)OCc1cc(-c3ccc4c(C)nccc4c3)ccc1O2` [Example 195, N-methoxy-6-(1-methyl-6-isoquinolyl)spiro[4H-1,3-benzodioxine-2,4′-piperidine]-1′-carboxamide], which IC50 is on record?
Answer: The IC50 was 1 to 99 nM.

Question: Which IC50 does the source give for `CCONC(=O)N1CCC2(CC1)OCc1cc(-c3cc4ccccc4cn3)ccc1O2` [Example 145, N-Ethoxy-6-(3-isoquinolyl)spiro[4H-1,3-benzodioxine-2,4′-piperidine]-1′-carboxamide] here?
Answer: The IC50 was 1 to 99 nM.

Question: With `CCNC(=O)N1CCC2(CC1)OCc1cc(-c3ccc4cccnc4c3C)ccc1O2` [Example 117, N-Ethyl-6-(8-methyl-7-quinolyl)spiro[4H-1,3-benzodioxine-2,4′-piperidine]-1′-carboxamide] as the molecule, how does the IC50 read?
Answer: Its IC50 is 1 to 99 nM.

Question: With `CONC(=O)N1CCC2(CC1)OCc1cc(-c3ccc4cccnc4c3C)ccc1O2` [Example 122, N-Methoxy-6-(8-methyl-7-quinolyl)spiro[4H-1,3-benzodioxine-2,4′-piperidine]-1′-carboxamide] as the molecule, how does the IC50 read?
Answer: The IC50 was 1 to 99 nM.

Question: Which IC50 does the source give for `COc1c(-c2ccc3c(c2)COC2(CCN(C(=O)[C@H]4CCCO4)CC2)O3)ccc2cccnc12` [Example 56, [6-(8-Methoxy-7-quinolyl)spiro[4H-1,3-benzodioxine-2,4′-piperidine]-1′-yl]-[(2R)-tetrahydrofuran-2-yl]methanone] here?
Answer: Its IC50 is 1 to 99 nM.

Question: With `CCONC(=O)N1CCC2(CC1)OCc1cc(-c3cnc4ccccc4c3C)ccc1O2` [Example 139, N-Ethoxy-6-(4-methyl-3-quinolyl)spiro[4H-1,3-benzodioxine-2,4′-piperidine]-1′-carboxamide] as the molecule, how does the IC50 read?
Answer: Its IC50 is 1 to 99 nM.

Same assay, conditions: 5 nM FASN, 150 μM NADPH, 10 μM acetyl-CoA, 25 μM malonyl-CoA, 90 minutes incubation; read-out: IC50 data for Compounds of Formula I, Activity

Question: With `O=C(C1CCC1)N1CCC2(C=Cc3cc(-c4cnc5ccccc5c4)ccc3O2)CC1` [Example 45, Cyclobutyl-[6-(3-quinolyl)spiro[chromene-2,4′-piperidine]-1′-yl]methanone] as the molecule, how does the IC50 read?
Answer: Its IC50 is 1 to 99 nM.

Question: For `CONC(=O)N1CCC2(CCc3cc(-c4ccc5c(C)nccc5c4)ccc3O2)CC1` [Example 184, N-methoxy-6-(1-methyl-6-isoquinolyl)spiro[chromane-2,4′-piperidine]-1′-carboxamide], which IC50 is on record?
Answer: The IC50 was 1 to 99 nM.

Question: With `Cn1ccc2cc(-c3ccc4c(c3)CCC3(CCN(C(N)=O)CC3)O4)ccc21` [Example 75, 6-(1-Methylindol-5-yl)spiro[chromane-2,4′-piperidine]-1′-carboxamide] as the molecule, how does the IC50 read?
Answer: The IC50 was 100 to 999 nM.

Question: Which IC50 does the source give for `Cc1c(-c2ccc3c(c2)CCC2(CCN(C(=O)NO)CC2)O3)ccc2nccn12` [Example 141, 6-(5-Methylimidazo[1,2-a]pyridin-6-yl)spiro[chromane-2,4′-piperidine]-1′-carbohydroxamic acid] here?
Answer: The IC50 was 1000 to 10000 nM.

Question: Which IC50 does the source give for `Cc1c(-c2ccc3c(c2)CCC2(CCN(C(=O)NO)CC2)O3)cnc2ccccc12` [Example 191, 6-(4-Methyl-3-quinolyl)spiro[chromane-2,4′-piperidine]-1′-carbohydroxamic acid] here?
Answer: Its IC50 is 100 to 999 nM.

Question: For `Cc1c(-c2ccc3c(c2)CCC2(CCN(C(N)=O)CC2)O3)ccc2c(O)ccnc12` [Example 251, 6-(4-Hydroxy-8-methyl-7-quinolyl)spiro[chromane-2,4′-piperidine]-1′-carboxamide], which IC50 is on record?
Answer: Its IC50 is 1000 to 10000 nM.
